From patent publication US20240384268A1, “Oligonucleotides” (Hudson Institute of Medical Research, priority 2021, published 2024)
In the oligonucleotide strings, read from the 5' end, every base follows the letter of its sugar. An asterisk marks phosphorothioate; unmarked linkages are phosphodiester. Other units and linkages are bracketed, terminal groups are in braces. A string of capitals states the bases alone. d = 2'-deoxy (DNA); m = 2'-O-methyl

These substances were tested against T1, human TLR9 (Homo sapiens, UniProt Q9NR96) (assay: HEK-TLR9 NF-κB-luciferase reporter, ODN2006 stimulation). Details: HEK-TLR9; 500 nM ASO 45 min, then 200 nM ODN2006 overnight; percentage of ODN2006 only.
T1 construct: HA; host or cells: 293XL-hTLR9-HA (HEK293)
T1 sequence (Q9NR96 26-1032): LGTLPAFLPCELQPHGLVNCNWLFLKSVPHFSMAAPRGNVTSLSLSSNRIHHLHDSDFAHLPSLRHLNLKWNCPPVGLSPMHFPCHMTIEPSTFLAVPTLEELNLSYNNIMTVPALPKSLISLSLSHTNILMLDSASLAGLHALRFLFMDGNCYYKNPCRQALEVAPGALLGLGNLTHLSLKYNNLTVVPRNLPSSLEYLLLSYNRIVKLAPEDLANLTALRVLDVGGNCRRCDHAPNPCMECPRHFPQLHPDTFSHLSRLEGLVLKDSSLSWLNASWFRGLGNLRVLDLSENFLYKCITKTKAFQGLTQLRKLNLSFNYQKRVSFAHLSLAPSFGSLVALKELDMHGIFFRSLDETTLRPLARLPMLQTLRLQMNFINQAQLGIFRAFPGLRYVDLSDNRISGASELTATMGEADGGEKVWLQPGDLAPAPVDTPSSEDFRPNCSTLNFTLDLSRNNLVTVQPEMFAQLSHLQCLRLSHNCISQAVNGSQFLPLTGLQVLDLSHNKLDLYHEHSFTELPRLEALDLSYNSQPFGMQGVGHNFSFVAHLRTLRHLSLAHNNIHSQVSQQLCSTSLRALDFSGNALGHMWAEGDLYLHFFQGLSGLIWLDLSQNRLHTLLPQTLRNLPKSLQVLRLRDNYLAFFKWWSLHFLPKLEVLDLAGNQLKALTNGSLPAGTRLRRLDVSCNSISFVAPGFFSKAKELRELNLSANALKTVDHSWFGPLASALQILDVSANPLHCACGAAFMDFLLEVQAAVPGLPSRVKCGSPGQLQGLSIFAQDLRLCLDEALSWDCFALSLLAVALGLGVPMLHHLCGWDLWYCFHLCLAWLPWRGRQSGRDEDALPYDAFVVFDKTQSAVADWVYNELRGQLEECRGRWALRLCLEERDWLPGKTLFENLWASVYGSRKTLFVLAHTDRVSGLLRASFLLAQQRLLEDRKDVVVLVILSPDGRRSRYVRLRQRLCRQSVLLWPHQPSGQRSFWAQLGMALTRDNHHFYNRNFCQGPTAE
Format: cell-based

| Substance | TLR9-500 nM: averaged NF-κB-Luciferase relative to ODN2006 [%] |
| --- | --- |
| mC*mA*mU*mC*mC*C*T*T*C*T*G*C*T*G*C*mC*mA*mA*mG*mC (mC*mA*mU*mC*mC*dC*dT*dT*dC*dT*dG*dC*dT*dG*dC*mC*mA*mA*mG*mC; antisense) [[LINC-PINT]98] | 65.09 |
| mC*mC*mA*mU*mC*C*C*T*T*C*T*G*C*T*G*mC*mC*mA*mA*mG (mC*mC*mA*mU*mC*dC*dC*dT*dT*dC*dT*dG*dC*dT*dG*mC*mC*mA*mA*mG; antisense) [ILING-PINT199] | 92.72 |
| mC*mC*mA*mU*mG*T*C*C*C*A*G*G*C*C*T*mC*mC*mA*mG*mU (CCAUGTCCCAGGCCTCCAGU; sugars from the 5' end m5 d10 m5, all phosphorothioate, methylation of C not given here) [[CDKN2B-AS1]2227] | 48.79 |
| mC*mC*mC*mU*mA*A*T*G*C*T*T*T*C*C*T*mC*mU*mC*mC*mA (mC*mC*mC*mU*mA*dA*dT*dG*dC*dT*dT*dT*dC*dC*dT*mC*mU*mC*mC*mA; antisense) [[LINC-PINT1877 KL] | 86.47 |
| mC*mC*mC*mU*mU*C*T*C*T*C*T*G*G*T*C*mC*mC*mA*mU*mC (mC*mC*mC*mU*mU*dC*dT*dC*dT*dC*dT*dG*dG*dT*dC*mC*mC*mA*mU*mC; antisense) [[LINC-PINT]114] | 62.09 |
| mC*mC*mU*mA*mG*A*A*A*G*A*A*G*C*A*A*mA*mG*mA*mU*mU (mC*mC*mU*mA*mG*dA*dA*dA*dG*dA*dA*dG*dC*dA*dA*mA*mG*mA*mU*mU) [[CDKN2B-AS1]1522] | 42.44 |
| mC*mC*mU*mU*mC*T*C*T*C*T*G*GT*C*C*mC*mA*mU*mC*mC (CCUUCTCTCTGGTCCCAUCC; antisense; chemistry not fully specified) [[LINC-PINT]113] | 55.47 |
| mC*mC*mU*mU*mC*T*G*C*T*G*C*C*A*A*G*mC*mC*mC*mC*mA (mC*mC*mU*mU*mC*dT*dG*dC*dT*dG*dC*dC*dA*dA*dG*mC*mC*mC*mC*mA; antisense) [[LINC-PINT]94] | 96.69 |
| mC*mU*mC*mU*mC*T*G*G*T*C*C*C*A*T*C*mC*mC*mU*mU*mC (mC*mU*mC*mU*mC*dT*dG*dG*dT*dC*dC*dC*dA*dT*dC*mC*mC*mU*mU*mC; antisense) [[LINC-PINT]109] | 89.85 |
| mC*mU*mU*mC*mU*C*T*C*T*G*G*T*C*C*C*mA*mU*mC*mC*mC (mC*mU*mU*mC*mU*dC*dT*dC*dT*dG*dG*dT*dC*dC*dC*mA*mU*mC*mC*mC) [[LINC-PINT]112] | 64.35 |
| mC*mU*mU*mU*mA*T*A*T*T*A*C*A*A*A*G*mC*mU*mA*mC*mU (mC*mU*mU*mU*mA*dT*dA*dT*dT*dA*dC*dA*dA*dA*dG*mC*mU*mA*mC*mU; antisense) [[LINC-PINT]2755] | 84.43 |
| mG*mA*mA*mA*mA*G*A*T*T*A*T*C*T*T*C*mU*mU*mU*mU*mA (GAAAAGATTATCTTCUUUUA; sugars from the 5' end m5 d10 m5, all phosphorothioate, methylation of C not given here) [[CDKN2B-AS1]2134] | 61.11 |
| mG*mA*mU*mG*mG*T*T*C*C*A*G*T*C*C*C*mU*mC*mU*mU*mC (GAUGGTTCCAGTCCCUCUUC; antisense; sugars from the 5' end m5 d10 m5, all phosphorothioate, methylation of C not given here) [[LINC-PINT]1497.1] | 80.47 |
| mG*mA*mU*mU*mA*A*A*A*C*A*G*A*T*T*A*mA*mU*mA*mC*mA (mG*mA*mU*mU*mA*dA*dA*dA*dC*dA*dG*dA*dT*dT*dA*mA*mU*mA*mC*mA) [[CDKN2B-AS1]1773] | 44.97 |
| mG*mC*mA*mA*mG*G*C*A*G*A*G*A*A*A*C*mU*mC*mC*mA*mG (GCAAGGCAGAGAAACUCCAG; sugars from the 5' end m5 d10 m5, all phosphorothioate, methylation of C not given here) [[LINC-PINT]1315 KL] | 53.46 |
| mG*mC*mG*mU*mA*G*T*T*T*C*T*C*T*T*C*mC*mU*mC*mC*mC (GCGUAGTTTCTCTTCCUCCC; sugars from the 5' end m5 d10 m5, all phosphorothioate, methylation of C not given here) [[LINC-PINT]935 KL] | 52.04 |

| Substance | TLR9-500 nM: averaged NF-κB-Luciferase relative to ODN2006 [%] |
| --- | --- |
| mG*mG*mA*mU*mU*A*A*A*A*C*A*G*A*T*T*mA*mA*mU*mA*mC (GGAUUAAAACAGATTAAUAC; sugars from the 5' end m5 d10 m5, all phosphorothioate, methylation of C not given here) [[CDKN2B-AS1]1774] | 27.79 |
| mG*mG*mG*mU*mC*T*C*C*T*C*C*A*C*A*C*mC*mC*mU*mU*mC (GGGUCTCCTCCACACCCUUC; antisense; sugars from the 5' end m5 d10 m5, all phosphorothioate, methylation of C not given here) [[LINC-PINT]128] | 94.51 |
| mG*mG*mU*mC*mC*C*A*T*C*C*C*T*T*C*T*mG*mC*mU*mG*mC (GGUCCCATCCCTTCTGCUGC; sugars from the 5' end m5 d10 m5, all phosphorothioate, methylation of C not given here) [[LINC-PINT]103] | 88.75 |
| mG*mG*mU*mC*mU*C*C*T*C*C*A*C*A*C*C*mC*mU*mU*mC*mU (mG*mG*mU*mC*mU*dC*dC*dT*dC*dC*dA*dC*dA*dC*dC*mC*mU*mU*mC*mU; antisense) [[LINC-PINT]127] | 77.91 |
| mG*mG*mU*mG*mG*C*C*A*C*A*G*G*C*A*A*mC*mG*mU*mC*mA (GGUGGCCACAGGCAACGUCA; antisense; sugars from the 5' end m5 d10 m5, all phosphorothioate, methylation of C not given here) [[CDKN2B-AS1]2196] | 97.04 |
| mG*mU*mC*mA*mA*A*C*C*T*A*G*A*A*A*G*mA*mA*mG*mC*mA (mG*mU*mC*mA*mA*dA*dC*dC*dT*dA*dG*dA*dA*dA*dG*mA*mA*mG*mC*mA; antisense) [[CDKN2B-AS1]1528] | 68.13 |
| mG*mU*mC*mC*mC*A*G*G*C*C*T*C*C*A*G*mU*mG*mU*mC*mU (mG*mU*mC*mC*mC*dA*dG*dG*dC*dC*dT*dC*dC*dA*dG*mU*mG*mU*mC*mU; antisense) [[CDKN2B-AS1]2223] | 67.61 |
| mG*mU*mC*mC*mC*A*T*C*C*C*T*T*C*T*G*mC*mU*mG*mC*mC (GUCCCATCCCTTCTGCUGCC; antisense; sugars from the 5' end m5 d10 m5, all phosphorothioate, methylation of C not given here) [[LINC-PINT]102] | 101.22 |
| mG*mU*mC*mC*mG*T*A*C*C*T*C*C*A*C*C*mC″mA*mC*mC*mG [[LINC-PINT]727.1] | 58.15 |
| mG*mU*mC*mU*mC*C*T*C*C*A*C*A*C*C*C*mU*mU*mC*mU*mC (mG*mU*mC*mU*mC*dC*dT*dC*dC*dA*dC*dA*dC*dC*dC*mU*mU*mC*mU*mC; antisense) [[LINC-PINT]126] | 77.09 |
| mG*mU*mU*mC*mA*G*T*C*A*G*A*T*C*G*C*mU*mG*mG*mG*mA (mG*mU*mU*mC*mA*dG*dT*dC*dA*dG*dA*dT*dC*dG*dC*mU*mG*mG*mG*mA) [[LINC-PINT]412 KL] | 77.50 |
| mU*mA*mA*mA*mA*T*A*A*G*G*G*G*A*A*T*mA*mG*mG*mG*mG (mU*mA*mA*mA*mA*dT*dA*dA*dG*dG*dG*dG*dA*dA*dT*mA*mG*mG*mG*mG) [[CDKN2B-AS1]80] | 64.58 |
| mU*mC*mC*mC*mA*A*C*T*C*T*T*C*T*A*A*mC*mU*mC*mG*mU (mU*mC*mC*mC*mA*dA*dC*dT*dC*dT*dT*dC*dT*dA*dA*mC*mU*mC*mG*mU; antisense) [[LINC-PINT]1284 KL] | 86.73 |
| mU*mC*mC*mC*mA*T*C*C*C*T*T*C*T*G*C*mU*mG*mA*mC*mA (UCCCATCCCTTCTGCUGACA; sugars from the 5' end m5 d10 m5, all phosphorothioate, methylation of C not given here) [[LINC-PINT]101] | 59.80 |
| mU*mC*mU*mC*mC*A*T*G*T*C*C*C*A*G*G*mC*mC*mU*mC*mC (mU*mC*mU*mC*mC*dA*dT*dG*dT*dC*dC*dC*dA*dG*dG*mC*mC*mU*mC*mC; antisense) [[CDKN2B-AS1]2230] | 118.93 |
